From ChEMBL document CHEMBL3875179 (Eur J Med Chem, 2016)

Experiments:
[1] = biological target: Cholinesterase (Equus caballus) (UniProt P81908); test: Inhibition of equine serum BChE using butyrylthiocholine iodide as substrate at 10^-4 M preincubated for 15 mins followed by substrate addition and measured for 5 mins by Ellmans method
[2] = biological target: Cholinesterase (Equus caballus) (UniProt P81908); test: Inhibition of equine serum BChE using butyrylthiocholine iodide as substrate at 10^-3 M preincubated for 15 mins followed by substrate addition and measured for 5 mins by Ellmans method
[3] = Selectivity index, ratio of IC50 for mouse NIH/3T3 cells to IC50 for electric eel AChE
Acetylcholinesterase = Acetylcholinesterase (Electrophorus electricus, UniProt O42275); test: Inhibition of electric eel AChE using acetylthiocholine iodide as substrate preincubated for 15 mins followed by substrate addition and measured for 5 mins by Ellmans method
Chain of Acetylcholinesterase (O42275 whole entry): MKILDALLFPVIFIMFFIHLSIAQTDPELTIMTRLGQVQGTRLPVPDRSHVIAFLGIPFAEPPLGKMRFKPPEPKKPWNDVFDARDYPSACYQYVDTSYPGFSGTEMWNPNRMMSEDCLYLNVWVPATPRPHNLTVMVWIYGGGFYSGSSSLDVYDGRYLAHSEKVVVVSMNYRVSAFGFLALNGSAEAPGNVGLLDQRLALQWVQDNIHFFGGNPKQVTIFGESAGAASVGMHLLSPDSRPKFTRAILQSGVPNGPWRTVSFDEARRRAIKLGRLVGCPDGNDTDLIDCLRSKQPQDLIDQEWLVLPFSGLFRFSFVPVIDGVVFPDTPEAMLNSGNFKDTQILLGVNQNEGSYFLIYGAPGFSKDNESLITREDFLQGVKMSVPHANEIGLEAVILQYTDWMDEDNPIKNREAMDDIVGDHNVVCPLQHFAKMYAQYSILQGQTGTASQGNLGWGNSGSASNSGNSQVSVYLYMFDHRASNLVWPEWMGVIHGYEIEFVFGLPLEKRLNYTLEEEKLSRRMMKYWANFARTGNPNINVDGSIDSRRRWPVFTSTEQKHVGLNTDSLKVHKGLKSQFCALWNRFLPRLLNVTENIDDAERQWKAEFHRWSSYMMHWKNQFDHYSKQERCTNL

[4] = Cytotoxicity against mouse NIH/3T3 cells after 24 hrs by MTT assay; assay type: toxicity, NIH3T3

Chain of Cholinesterase (Equus caballus) (P81908 whole entry): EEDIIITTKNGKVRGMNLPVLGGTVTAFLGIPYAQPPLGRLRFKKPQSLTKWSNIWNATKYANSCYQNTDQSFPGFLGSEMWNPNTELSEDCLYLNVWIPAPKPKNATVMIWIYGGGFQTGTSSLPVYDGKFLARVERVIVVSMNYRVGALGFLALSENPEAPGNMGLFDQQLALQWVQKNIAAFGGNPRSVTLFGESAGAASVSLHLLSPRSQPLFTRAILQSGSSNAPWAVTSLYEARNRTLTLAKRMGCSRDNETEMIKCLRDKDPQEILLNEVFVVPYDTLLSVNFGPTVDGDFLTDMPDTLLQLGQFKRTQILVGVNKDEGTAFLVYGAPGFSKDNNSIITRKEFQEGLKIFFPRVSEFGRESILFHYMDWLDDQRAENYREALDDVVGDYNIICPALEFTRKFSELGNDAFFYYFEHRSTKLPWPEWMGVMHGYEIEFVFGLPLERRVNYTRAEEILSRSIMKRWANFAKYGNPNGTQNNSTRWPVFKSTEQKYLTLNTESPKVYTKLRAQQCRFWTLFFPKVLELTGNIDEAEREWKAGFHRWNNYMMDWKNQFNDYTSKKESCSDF

| SMILES | inhibition [1] [%] | inhibition [2] [%] | Ratio IC50 [3] | IC50 (Acetylcholinesterase) [µM] | IC50 at 24 h [4] [µM] |
| --- | --- | --- | --- | --- | --- |
| COc1cc2c(cc1OC)C(=O)C(CC1CCN(CC(=O)Nc3ccccc3)CC1)C2 (configuration not stated) | 2.58 | 5 |  |  |  |
| COc1cc2c(cc1OC)C(=O)C(CC1CCN(CC(=O)Nc3nc4ccccc4s3)CC1)C2 (configuration not stated) | 2.31 | 5.23 |  |  |  |
| COc1ccc(NC(=O)CN2CCC(CC3Cc4cc(OC)c(OC)cc4C3=O)CC2)cc1 (configuration not stated) | 1.33 | 4.28 |  |  |  |
| CCN1CCN(c2ccc(/C=C3/Cc4cc(OC)c(OC)cc4C3=O)cc2)CC1 | 8.56 | 16.9 |  |  |  |
| CCN(CC)c1ccc(/C=C2/Cc3ccc(OC)cc3C2=O)cc1 | 1.65 | 2.8 |  |  |  |
| COc1cc2c(cc1OC)C(=O)/C(=C\c1ccc(N3CCN(C)CC3)cc1)C2 | 8.55 | 19.2 |  |  |  |
| COc1ccc2nc(NC(=O)CN3CCC(CC4Cc5cc(OC)c(OC)cc5C4=O)CC3)sc2c1 (configuration not stated) | 3.19 | 5.33 |  |  |  |
| COc1ccc2c(c1)C/C(=C/c1ccc(N3CCN(CCN(C)C)CC3)cc1)C2=O | 9.56 | 15.2 |  |  |  |
| CCN1CCN(c2ccc(/C=C3/Cc4ccc(OC)cc4C3=O)cc2)CC1 | 4.2 | 5.05 |  |  |  |
| COc1ccc2c(c1)C(=O)/C(=C\c1ccc(N3CCN(CCN(C)C)CC3)cc1)C2 | 10.6 | 17.2 |  |  |  |
| COc1cc2c(cc1OC)C(=O)C(CC1CCN(CC(=O)Nc3nc4ccc(F)cc4s3)CC1)C2 (configuration not stated) | 3.1 | 4.89 |  |  |  |
| CCN(CC)c1ccc(/C=C2/Cc3cc(OC)c(OC)cc3C2=O)cc1 | 1.96 | 3.76 |  |  |  |
| COc1ccc2c(c1)C(=O)/C(=C\c1ccc(N3CCN(C)CC3)cc1)C2 | 9.63 | 14.7 |  |  |  |
| COc1cc2c(cc1OC)C(=O)/C(=C\c1ccc(N3CCCC3)cc1)C2 | 2.77 | 4.98 |  |  |  |
| COc1cc2c(cc1OC)C(=O)C(CC1CCN(CC(=O)Nc3nc4ccc(Cl)cc4s3)CC1)C2 (configuration not stated) | 3.09 | 6.21 |  |  |  |
| COc1ccc2c(c1)C(=O)/C(=C\c1ccc(N3CCCC3)cc1)C2 | 3.18 | 5.7 |  |  |  |
| COc1cc2c(cc1OC)C(=O)C(CC1CCN(CC(=O)Nc3nc4cc(OC)c(OC)cc4s3)CC1)C2 (configuration not stated) | 2.05 | 3.77 |  |  |  |
| COc1cc2c(cc1OC)C(=O)C(CC1CCN(CC(=O)Nc3ccc([N+](=O)[O-])cc3)CC1)C2 (configuration not stated) | 2.69 | 4.88 |  |  |  |
| COc1ccc2c(c1)C/C(=C/c1ccc(N3CCN(CCO)CC3)cc1)C2=O | 5.91 | 7.63 |  |  |  |

| SMILES | inhibition [1] [%] | inhibition [2] [%] | Ratio IC50 [3] | IC50 (Acetylcholinesterase) [µM] | IC50 at 24 h [4] [µM] |
| --- | --- | --- | --- | --- | --- |
| COc1ccc2c(c1)C/C(=C/c1ccc(N3CCN(CCCN(C)C)CC3)cc1)C2=O | 11.3 | 16 | 27 | 8.54 | 230 |
| COc1ccc2c(c1)C(=O)/C(=C\c1ccc(N3CCN(CCCN(C)C)CC3)cc1)C2 | 10.1 | 16.1 | 13 | 6.06 | 78 |
| CCN1CCN(c2ccc(/C=C3/Cc4cc(OC)ccc4C3=O)cc2)CC1 | 8.77 | 15.1 |  |  |  |
| COc1cc2c(cc1OC)C(=O)/C(=C\c1ccc(N3CCN(c4ccccc4)CC3)cc1)C2 | 1.08 | 3.22 |  |  |  |
| COc1cc2c(cc1OC)C(=O)/C(=C\c1ccc(N3CCN(CCN(C)C)CC3)cc1)C2 | 12.1 | 17 | 50 | 6.38 | 320 |
| COc1ccc2c(c1)C/C(=C/c1ccc(N3CCN(C)CC3)cc1)C2=O | 7.56 | 12.9 |  |  |  |
| CCN(CC)c1ccc(/C=C2/Cc3cc(OC)ccc3C2=O)cc1 | 5.27 | 10.3 |  |  |  |
| COc1ccc2c(c1)C(=O)/C(=C\c1ccc(N3CCN(c4ccccc4)CC3)cc1)C2 | 1.06 | 1.73 |  |  |  |
| COc1cc2c(cc1OC)C(=O)/C(=C\c1ccc(N3CCN(CCO)CC3)cc1)C2 | 7.55 | 18.2 |  |  |  |
| COc1cc2c(cc1OC)C(=O)C(CC1CCN(CC(=O)Nc3ccc(F)cc3)CC1)C2 (configuration not stated) | 1.99 | 4.75 |  |  |  |
| COc1cc2c(cc1OC)C(=O)C(CC1CCN(CC(=O)Nc3nc4ccc(C)cc4s3)CC1)C2 (configuration not stated) | 2.08 | 4.29 |  |  |  |
| COc1cc2c(cc1OC)C(=O)C(CC1CCN(CC(=O)Nc3ccc(Cl)cc3)CC1)C2 (configuration not stated) | 2.77 | 5.39 |  |  |  |
| COc1cc2c(cc1OC)C(=O)/C(=C\c1ccc(N3CCN(CCCN(C)C)CC3)cc1)C2 | 13.9 | 18.7 |  | 4.89 | 78 |
| COc1cc2c(cc1OC)C(=O)C(CC1CCN(CC(=O)Nc3nc4ccc([N+](=O)[O-])cc4s3)CC1)C2 (configuration not stated) | 1.13 | 4.18 |  |  |  |
| COc1ccc(NC(=O)CN2CCC(CC3Cc4cc(OC)c(OC)cc4C3=O)CC2)cc1OC (configuration not stated) | 1.29 | 5.85 |  |  |  |
| COc1ccc2c(c1)C(=O)/C(=C\c1ccc(N3CCN(CCO)CC3)cc1)C2 | 1.25 | 3.45 |  |  |  |
| COc1cc2c(cc1OC)C(=O)C(CC1CCN(CC(=O)Nc3ccc(C)cc3)CC1)C2 (configuration not stated) | 3.2 | 5.89 |  |  |  |
| COc1ccc2c(c1)C/C(=C/c1ccc(N3CCN(c4ccccc4)CC3)cc1)C2=O | 2.38 | 5.2 |  |  |  |
| COc1ccc2c(c1)C/C(=C/c1ccc(N3CCCC3)cc1)C2=O | 1.25 | 3.08 |  |  |  |
